This passage reports ΔT m, DC50 and K d results from publication PMC5674183 (2017).

Assay [1] concerns dual labeled ds DNA (DNA, hairpin, hexaethylene glycol (HEG) linker between 10 and 11) TATAGCTATATATAGCTATA
Kind of assay: FRET melting. The following applies: K+ (60 mM K-cacodylate), pH 6 (Table 1; also pH 7), 1 μM compound, 100 nM DNA.

The subject of assay [2] is h-TELO-C (DNA, i motif) TAACCCTAACCCTAACCCTAACCC
As to the kind of experiment: thiazole orange displacement (fluorescence). The following applies: K+ (60 mM K-cacodylate); pH 6; thiazole orange displaced, 0.25 μM DNA.

Assay [3] relates to 3′-TAMRA-c-MYC-G (DNA, G4) TGGGGAGGGTGGGGAGGGTGGGGAAGGTGGGGA
As to the kind of experiment: fluorescence quenching titration. The following applies: K+ (60 mM K-cacodylate); pH 7, 25 °C, 250 nM DNA.

The test system of assay [4] is c-MYC-C (DNA, i motif) TCCCCACCTTCCCCACCCTCCCCACCCTCCCCA
As to the kind of experiment: thiazole orange displacement (fluorescence). The following applies: K+ (60 mM K-cacodylate); pH 6 (folded at pH 4.8); 0.5 μM thiazole orange displaced, 0.25 μM DNA.

For assay [5], the system named is 3′-TAMRA-BCL-2-C (DNA, i motif) CAGCCCCGCTCCCGCCCCCTTCCTCCCGCGCCCGCCCCT
Kind of assay: fluorescence quenching titration. The settings on record: K+ (60 mM K-cacodylate); pH 6 (folded at pH 4.8), 25 °C, 250 nM DNA.

For assay [6], the system named is BCL-2-G (DNA, G4) AGGGGCGGGCGCGGGAGGAAGGGGGCGGGAGCGGGGCGT
As to the kind of experiment: thiazole orange displacement (fluorescence). The following applies: K+ (60 mM K-cacodylate); pH 7; 0.5 μM thiazole orange displaced, 0.25 μM DNA.

Assay [7] relates to dual labeled BCL-2-C (DNA, i motif) CAGCCCCGCTCCCGCCCCCTTCCTCCCGCGCCCGCCCCT
As to the kind of experiment: FRET melting. The settings on record: K+ (60 mM K-cacodylate); pH 6 (folded at pH 4.8); 1 μM compound, 100 nM DNA.

The test system of assay [8] is h-TELO-G (DNA, G4) GGGTTAGGGTTAGGGTTAGGG
Kind of assay: thiazole orange displacement (fluorescence). The following applies: K+ (60 mM K-cacodylate); pH 7; thiazole orange displaced, 0.25 μM DNA.

Assay [9] deals with 3′-TAMRA-BCL-2-G (DNA, G4) AGGGGCGGGCGCGGGAGGAAGGGGGCGGGAGCGGGGCGT
As to the kind of experiment: fluorescence quenching titration. The settings on record: K+ (60 mM K-cacodylate); pH 7, 25 °C, 250 nM DNA.

In assay [10] the test system is 5′-TAMRA-c-MYC-G (DNA, G4) TGGGGAGGGTGGGGAGGGTGGGGAAGGTGGGGA
Kind of assay: fluorescence quenching titration. The settings on record: K+ (60 mM K-cacodylate); pH 7, 25 °C, 250 nM DNA.

The test system of assay [11] is 5′-TAMRA-c-MYC-C (DNA, i motif) TCCCCACCTTCCCCACCCTCCCCACCCTCCCCA
Kind of assay: fluorescence quenching titration. The settings on record: K+ (60 mM K-cacodylate); pH 6 (folded at pH 4.8), 25 °C, 250 nM DNA.

In assay [12] the test system is 5′-TAMRA-BCL-2-C (DNA, i motif) CAGCCCCGCTCCCGCCCCCTTCCTCCCGCGCCCGCCCCT
Kind of assay: fluorescence quenching titration. The settings on record: K+ (60 mM K-cacodylate); pH 6 (folded at pH 4.8), 25 °C, 250 nM DNA.

The test system of assay [13] is BCL-2-C (DNA, i motif) CAGCCCCGCTCCCGCCCCCTTCCTCCCGCGCCCGCCCCT
As to the kind of experiment: thiazole orange displacement (fluorescence). The settings on record: K+ (60 mM K-cacodylate); pH 6 (folded at pH 4.8); 0.5 μM thiazole orange displaced, 0.25 μM DNA.

Assay [14] has as its system 5′-TAMRA-BCL-2-G (DNA, G4) AGGGGCGGGCGCGGGAGGAAGGGGGCGGGAGCGGGGCGT
As to the kind of experiment: fluorescence quenching titration. The settings on record: K+ (60 mM K-cacodylate); pH 7, 25 °C, 250 nM DNA.

The subject of assay [15] is 5′-TAMRA-ds DNA (DNA, hairpin, hexaethylene glycol (HEG) linker between 10 and 11) TATAGCTATATATAGCTATA
Kind of assay: fluorescence quenching titration. The settings on record: K+ (60 mM K-cacodylate); pH 7, 25 °C, 250 nM DNA; up to 30 μM.

The test system of assay [16] is 3′-TAMRA-c-MYC-C (DNA, i motif) TCCCCACCTTCCCCACCCTCCCCACCCTCCCCA
Kind of assay: fluorescence quenching titration. The following applies: K+ (60 mM K-cacodylate); pH 6 (folded at pH 4.8), 25 °C, 250 nM DNA.

The subject of assay [17] is c-MYC-G (DNA, G4) TGGGGAGGGTGGGGAGGGTGGGGAAGGTGGGGA
Kind of assay: thiazole orange displacement (fluorescence). The following applies: K+ (60 mM K-cacodylate); pH 7; 0.5 μM thiazole orange displaced, 0.25 μM DNA.

Assay [18] deals with dual labeled c-MYC-G (DNA, G4) TGGGGAGGGTGGGGAGGGTGGGGAAGGTGGGGA
As to the kind of experiment: FRET melting. The following applies: K+ (60 mM K-cacodylate); pH 7; 1 μM compound, 100 nM DNA.

For the molecule `CN(C)CCCOc1cc(C(=O)NCc2cn(-c3ccc(NC(=O)[C@@H]4CCCN4)cc3)nn2)nc(C(=O)NCc2cn(-c3ccc(NC(=O)[C@@H]4CCCN4)cc3)nn2)c1`, the ΔT m came out at 0.94 ± 1 °C in [1] (no shift up to 10 μM) and 29 ± 1 °C in assay [7]. Further, the DC50 in [2] is 4 ± 5% μM; in assay [4], 2.7 ± 5% μM; in [6], 5.7 ± 5% μM; in assay [8], 9.8 ± 5% μM; in [13], 0.9 ± 5% μM; in [17] it was 8.5 ± 5% μM. In addition, the K d was determined as 16.7 ± 5% μM in assay [3]; 2.1 ± 5% μM in assay [5]; 11.5 ± 5% μM in [9]; 12.5 ± 5% μM in assay [10]; 2.4 ± 5% μM in assay [11]; 0.3 ± 5% μM in assay [12]. The K d in assay [14] was 7.2 ± 5% μM; in [15] it was more than 25 µM; in assay [16] it was 5.9 ± 5% μM.
`O=C(NCc1cn(-c2ccc(NC(=O)[C@@H]3CCCN3)cc2)nn1)c1cccc(C(=O)NCc2cn(-c3ccc(NC(=O)[C@@H]4CCCN4)cc3)nn2)n1`: the DC50 in assay [2] is 10 ± 5% μM; in [4], 8.4 ± 5% μM; in [6], 9 ± 5% μM; in assay [8], 8.4 ± 5% μM; in assay [13], 7.9 ± 5% μM; in assay [17], 10.2 ± 5% μM.
`CN(C)CCCOc1cc(C(=O)NCc2cn(-c3cccc(NC(=O)[C@@H]4CCCN4)c3)nn2)nc(C(=O)NCc2cn(-c3cccc(NC(=O)[C@@H]4CCCN4)c3)nn2)c1`: the ΔT m is 1.1 ± 1 °C in [1] (no shift up to 15 μM) and 16 ± 1 °C in assay [18]. In addition, the DC50 was more than 15 µM in assay [2]; 6.8 ± 5% μM in [4]; 2.4 ± 5% μM in assay [6]; 4.7 ± 5% μM in [8]; 8.2 ± 5% μM in assay [13]; 1.3 ± 5% μM in assay [17]. The K d in [3] was determined as 4.1 ± 5% μM; in assay [5], 10.5 ± 5% μM; in [9] it was 4.5 ± 5% μM; in assay [10] it was 1.3 ± 5% μM; in assay [11], 9.5 ± 5% μM; in assay [12], 5.8 ± 5% μM. For the same molecule, the K d is 1.9 ± 5% μM in [14], more than 25 µM in assay [15] and 15.1 ± 5% μM in assay [16].
